Measured values reported in PubChem BioAssay (NCI).
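Following 48 hours of exposure in 96-well plates, responses at five concentrations were used to interpolate endpoints linearly. GI50 marks 50% less growth. TGI marks complete inhibition of growth.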

How the values were obtained:
Test in all cases: growth of human tumour cells (NCI), 48 h
OVCAR-4 ovarian = tested on: OVCAR-4 ovarian
OVCAR-3 ovarian = tested on: OVCAR-3 ovarian
DU-145 prostate = tested on: DU-145 prostate
SK-MEL-2 melanoma = tested on: SK-MEL-2 melanoma
NCI-H522 lung = tested on: NCI-H522 lung
HCC-2998 colon = tested on: HCC-2998 colon
HOP-92 NSCLC = tested on: HOP-92 NSCLC
RPMI-8226 leukemia = tested on: RPMI-8226 leukemia

Row | SMILES | GI50 (OVCAR-4 ovarian) [µM] | TGI (OVCAR-4 ovarian) [µM] | GI50 (OVCAR-3 ovarian) [µM] | TGI (OVCAR-3 ovarian) [µM] | GI50 (DU-145 prostate) [µM] | TGI (DU-145 prostate) [µM] | GI50 (SK-MEL-2 melanoma) [µM] | TGI (SK-MEL-2 melanoma) [µM] | GI50 (NCI-H522 lung) [µM] | TGI (NCI-H522 lung) [µM] | GI50 (HCC-2998 colon) [µM] | TGI (HCC-2998 colon) [µM] | GI50 (HOP-92 NSCLC) [µM] | TGI (HOP-92 NSCLC) [µM] | GI50 (RPMI-8226 leukemia) [µM] | TGI (RPMI-8226 leukemia) [µM]
1 | CCN(CC)c1ccc(/C=N/NC(=O)Cc2ccc(Nc3ccnc(C(F)(F)F)c3)cc2)c(O)c1 | 0.442 | > 100 | 0.473 | > 100 | 0.828 | > 100 | 4.52 | > 100 | 1.27 | > 100 | 1.17 | > 100 | 4.06 | > 100 | 0.521 | 54.2
2 | O=c1c(I)c[nH]cc1I | > 100 | > 100 | > 100 | > 100 | > 100 | > 100 | > 100 | > 100 | > 100 | > 100 | > 100 | > 100 | 67.1 | > 100 | > 100 | > 100
3 | O=[N+]([O-])c1cccc(/C=N/Nc2ccc3ccccc3n2)c1O | – | > 39.6 | – | 0.632 | – | 17.7 | – | 34.8 | – | 7.52 | – | – | – | > 46.9 | – | 24.3
4 | C=CCC(N[C@@H](CO)c1ccccc1)c1ccc2ccccc2n1 (some centres undefined) | > 100 | > 100 | 57.4 | > 100 | > 100 | > 100 | > 100 | > 100 | 64.6 | > 100 | > 100 | > 100 | – | – | 30.2 | > 100
5 | CC[C@H](C)[C@H](NC(=O)[C@H]1CCCCN1C)C(=O)N(C)[C@H](CCc1nc(C(=O)N[C@@H](Cc2ccccc2)C[C@H](C)C(=O)O)cs1)C(C)C | 1.94 | > 25 | 0.0371 | 0.181 | 0.389 | > 25 | 0.0789 | > 25 | 0.0351 | 0.579 | 0.632 | > 25 | 0.643 | > 25 | 0.1 | > 25
6 | Fc1ccccc1CN1COc2c(cc(Cl)c3cccnc23)C1 | – | 4.88 | – | 19.2 | – | 16.4 | – | 19.1 | – | 14.1 | – | – | – | 16.8 | – | –
7 | COC1C(OC(=O)c2ccc(C)[nH]2)C(O)C(Oc2ccc3c(O)c(NC(=O)c4ccc(O)c(CC=C(C)C)c4)c(=O)oc3c2Cl)OC1(C)C (centres undefined) | – | 99.6 | – | 43.6 | – | 75.4 | – | 27 | – | 29.8 | – | 33.2 | – | – | – | 30.4
8 | O=C(/C=C/c1ccc(O)c(O)c1)N1CCN(c2ccc(Cl)cc2)CC1 | 3.48 | 39.5 | – | – | 10.5 | 47.5 | 12.1 | 31.9 | 1.83 | 12.6 | 10.5 | 23.8 | 2.42 | 23.4 | 2.87 | 29.7
9 | CC1(C)CC(O)CC(C)(C)N1O | > 100 | > 100 | – | > 100 | – | > 100 | – | > 100 | > 100 | > 100 | – | > 100 | – | – | – | > 100
10 | Cc1cc(N2CCC(N3CCCC3)CC2)nc(/N=C(\N)Nc2ccc(Cl)c(Cl)c2)n1 | 2.02 | 3.99 | 1.72 | 3.26 | 1.75 | 3.44 | 2.11 | 3.85 | 1.52 | 3.32 | 1.54 | 3.17 | – | – | 0.264 | 0.926
11 | Nc1nc(SCc2ccccc2CCl)c2[nH]cnc2n1 | 13.2 | 37.3 | 14.6 | 28.9 | 16.3 | 41.7 | – | – | – | – | 18.8 | 33.3 | 20 | 67.8 | 31.9 | > 100
12 | O=[N+]([O-])c1ccccc1N=Nc1c(O)[nH]c2c(Cl)cccc12 | – | 24.8 | – | > 85.3 | – | > 79.2 | – | > 100 | – | 26.1 | – | > 100 | – | – | – | 96.2
13 | CCN(CC)CCOC(COc1cc(C)cc(C)c1)COc1cc(C)cc(C)c1 | 2.33 | 13.7 | 3.46 | 13 | 3.4 | 13.4 | 11.6 | 25.8 | 4.51 | 18.3 | 1.72 | 3.5 | – | – | – | –
14 | O=C(O)CNc1ccc2c(c1)Cc1cc(Br)ccc1-2 | – | 87.2 | – | > 100 | – | 82.4 | – | > 79 | – | 56.8 | – | – | – | > 90.7 | – | > 95.5
15 | CCOc1ccc2nc(NC(=O)C(=O)C3C(=O)C(CC4C(=O)c5ccccc5C4=O)C(=O)CC3(C)C)sc2c1 (centres undefined) | – | > 100 | – | > 100 | – | > 100 | – | > 100 | – | > 100 | – | > 100 | – | > 100 | – | –
16 | COc1cc(C2CC(c3ccccc3)=NN2C=O)ccc1Oc1ccnc2cc(Cl)ccc12 (centres undefined) | 4.17 | 34 | 18.6 | > 100 | > 100 | > 100 | 8.68 | 38.6 | 5.28 | > 100 | > 100 | > 100 | 1.5 | 13.6 | – | –
17 | CCc1ccc2c(c1)C(=O)c1c-2n(CCCN)c(=O)c2cc(OC)c(OC)cc12 | 1.74 | 3.2 | 1.51 | 2.89 | 1.62 | 3.07 | – | – | 1.59 | 3.38 | 1.63 | 3.05 | 1.33 | 2.71 | 1.41 | 3.02
18 | NC(=NCCCCCCN=C(N)/N=C(\N)Nc1ccc(Cl)cc1)/N=C(\N)Nc1ccc(Cl)cc1 | 1.72 | 6.46 | 1.45 | 3.55 | 1.93 | 6.52 | 1.31 | 3.18 | – | – | 1.8 | 6.33 | 1.41 | 3.8 | – | –
19 | [Br][Pb]([c]1ccccc1)([c]1ccccc1)[c]1ccccc1 | – | – | 0.139 | 0.272 | 0.182 | 0.37 | 0.218 | 0.539 | 0.158 | 0.352 | 0.191 | 0.412 | – | – | 0.179 | 0.681
20 | O=C1C(Cl)=C(Nc2ccc(S(=O)(=O)c3ccc(NC4=C(Cl)C(=O)c5ccccc5C4=O)cc3)cc2)C(=O)c2ccccc21 | – | – | – | – | 1.91 | 3.69 | – | – | – | – | 2.82 | 6.33 | 1.96 | 3.44 | 1.54 | 7.25
